{"source": "paper PMC7848139", "about": "“Novel Hybrid CHC from β-carboline and N-Hydroxyacrylamide Overcomes Drug-Resistant Hepatocellular Carcinoma by Promoting Apoptosis, DNA Damage, and Cell Cycle Arrest” (Frontiers in Pharmacology, 2021)", "key": {"HCT116": {"system": "HCT116", "experiment": "MTT antiproliferative assay, HCT116", "assay_type": "cell-based", "conditions": "Homo sapiens, HCT-116, 72 h, mean ± SD of three experiments, read-out: In vitro antiproliferative activity (IC50) HCT116", "protocol": "(§1) Briefly, appropriate cells (1 × 10^4 cells/mL) were placed into 96-well plates in 100 μL of DMEM medium overnight. Then adding 100 μL of evaluated compounds into individual well for 72 h while 0.1% DMSO aqueous solution was treated as the negative control. After incubation with 30 μl MTT (5 mg/mL) for 4 h in all well, and ELISA plate reader measured absorbance of each well at 570 nm. Then calculating cytotoxicity effect of evaluated compounds through the formula: Cell inhibitory percentage (%) = (1−OD of treatment group/OD of control) × 100%."}, "Huh7": {"system": "Huh7", "experiment": "MTT antiproliferative assay, Huh7", "assay_type": "cell-based", "conditions": "Homo sapiens, Huh-7, 72 h, mean ± SD of three experiments, read-out: In vitro antiproliferative activity (IC50) Huh7", "protocol": "as §1"}, "SMMC-7721": {"system": "SMMC-7721", "experiment": "MTT antiproliferative assay, SMMC-7721", "assay_type": "cell-based", "conditions": "Homo sapiens, 72 h, mean ± SD of three experiments, read-out: In vitro antiproliferative activity (IC50) SMMC-7721", "protocol": "as §1"}, "CT-DNA": {"system": "CT-DNA", "experiment": "UV-visible spectroscopy titrations with CT DNA", "assay_type": "binding, calf", "conditions": "20 μM compound, equal increments of CT-DNA, 25°C", "protocol": "The ultraviolet spectrophotometer (UV2500, Shimadzu, Tokyo, Japan) recorded UV–visible spectroscopy under titrations at 25°C. Tris buffer (5 mM) was used to prepare Stock solutions of CT DNA (20 μM, calf thymus DNA) comprising ideal structure of double stranded DNA. Dissolving synthesized derivative in 1:1000 DMSO/Milli Q water to prepare stock solutions of them (20 μM). UV–visible absorption titrations were carried out with addition of 100 μl CT DNA solution to 4 ml solution of tested compound in quartz cuvette each time interval. Until the absorption band of complex containing synthesized derivative and CT DNA kept at a stable wavelength after adding CT DNA successfully for five times, titrations were finished. Finally, spectrophotometer noted the absorption spectra (250–500 nm).\nFIGURE 7 UV-visible absorption spectra of CHC after adding equal amounts of CT DNA. Arrows indicate changes in absorbance with increasing concentrations of DNA [CHC] = 20 μM."}, "Bel7402/5-FU cells": {"system": "Bel7402/5-FU cells", "experiment": "Cell apoptosis analysis by flow cytometry", "assay_type": "cell-based, human", "conditions": "5.0 μM, 72 h", "protocol": "Briefly, Bel7402/5-FU cells were cultured in DMEM at 37°C with 5% CO2 for 12 h. […] Then Bel7402/5-FU cells were collected and using APC-Annexin V and 7-AAD to stain these cells under the condition of 37°C for 15 min. Flow cytometry analysis (Calibur, BD, United States) decide the percentage of apoptotic cells according to APC signal (FL4) (excitation wavelength at 633 nm; emission wavelength at 660 nm) and 7-AAD staining signal (FL3) (excitation wavelength at 488 nm; emission wavelength at 647 nm). WinList 3D (7.1) analyzed the data and Excel 2016 plotted the histogram.\nFIGURE 5 CHC causes apoptosis of Bel7402/5-FU cells. […] The data (mean ± SD, percentage of apoptotic cells) represent the average of three separate experiments. *p < 0.01 vs. control."}, "Bel7402/5-FU xenografts": {"system": "Bel7402/5-FU xenografts", "experiment": "In vivo tumor growth inhibition, Bel7402/5-FU xenograft", "design": "species or system BALB/c nude mice", "conditions": "70 μmol/kg, intraperitoneal daily, 21 days, n = 6; saline group 1.47 ± 0.21 g", "protocol": "All animal experimental protocols were approved by the Animal Research and Care Committee of Nantong University. Female BALB/c nude mice at 5∼6 week-old were subcutaneously implanted with 1×10^6 Bel7402/5-FU cells. […] The body mass and tumor size of nude mice were surveyed every three days during the 21 days study. Tumor size (mm^3) of nude mice was determined using the formula: tumor size = ½ (Length×Width^2). Finally, these tumor-bearing mice were sacrificed, and their tumors were removed and weighed at the end of the 21 days.\nData (means ± SD) were from tumor volumes or weight of each group of mice (n = 6 per group). *p < 0.01 vs. control group."}}}
{"smiles": "COc1ccc2c(c1)[nH]c1c(C)nccc12", "note": "[Harmine, harmine, reference compound]", "values": [{"measurement": "IC50", "setting": "HCT116", "result": "43.8 ± 3.85", "unit": "µM"}, {"measurement": "IC50", "setting": "Huh7", "result": "41.9 ± 5.06", "unit": "µM"}, {"measurement": "IC50", "setting": "SMMC-7721", "result": "47.6 ± 5.12", "unit": "µM"}]}
{"smiles": "O=C(CCCCCCC(=O)Nc1ccccc1)NO", "note": "[SAHA, Vorinostat, reference compound]", "values": [{"measurement": "change of UV-visible absorption upon adding CT-DNA", "setting": "CT-DNA", "result": "slightly increased"}, {"measurement": "rate of Annexin V+ Bel7402/5-FU cellular apoptosis", "setting": "Bel7402/5-FU cells", "result": 30.8, "unit": "%"}, {"measurement": "tumor mass at end of treatment", "setting": "Bel7402/5-FU xenografts", "result": "0.76 ± 0.11", "unit": "g"}]}
